# Data reported in publication PMC13108699, “Mass balance and metabolite profiling of ^14C-Zalunfiban in humans following single-dose subcutaneous administration” (Xenobiotica; the fate of foreign compounds in biological …, 2025).
# Read-outs that look alike come from different tables or passages of the source.
# Test: Whole blood zalunfiban and M1 concentrations (LC-MS/MS) and non-compartmental PK, phase 1 mass balance study
# Assay type: in vivo, human
# Details: for Cmax / Tmax / AUC(0-inf) / AUC(0-t) / k el / Vd/F / half-life: male, human, whole blood; for AUC(0-inf): read-out: AUC0-inf, whole blood zalunfiban; for AUC(0-t): read-out: AUC0-last, whole blood zalunfiban; for k el: read-out: Kel, whole blood zalunfiban (converted); for Vd/F: read-out: Vz/F, whole blood zalunfiban; for half-life: read-out: t1/2, whole blood zalunfiban (converted)
# Source text: This was a Phase 1, single-centre, open-label, non-controlled, mass balance and metabolite profiling study of ^14C-radiolabeled zalunfiban in health male volunteers (NCT04284995). The planned participant enrolment size was 8, with 2 additional alternate participants available on the morning of dosing. Following a 28-day screening period, all eligible participants were admitted to the research unit the evening before dosing. After fasting overnight, participants completed a standard breakfast prior to dosing on study day 1. After dosing, subjects fasted for 4 h. Fluids were permitted ad libitum starting 1-hour after dosing. The investigational product (IP) was injected SC on study day 1 and participants were housed for 11 days, which is past the final 240-hour sampling time, and then discharged following final evaluation. The clinical study was conducted at the Pharmaron Clinical Pharmacology Centre (Baltimore, MD) and the study protocol, consent forms and regulatory documents were reviewed and approved by the Advarra Institutional Review Board (Columbia, MD).
# All participants received the same fixed mass dose of SC 9.5 mg ^14C-zalunfiban (5 μCi), in 0.5 mL of formulation solution. This zalunfiban dose was chosen to both ensure participant safety and to make certain the study results were clinically relevant. For the latter, by strict inclusion of participants with a body weight within the range of 73–99 kg, the zalunfiban doses were no higher than the highest administered in the currently ongoing Phase 3 study, which includes three groups of 0.110 mg/kg zalunfiban, 0.130 mg/kg zalunfiban, and placebo ([NIH 2025]). The ^14C radiolabel dose of 5 μCi presented minimal radiation risk to healthy subjects while providing a high likelihood of meeting the study objectives.
# Serial blood samples were collected to determine zalunfiban and its major metabolite des-gly-zalunfiban (M1) whole blood concentrations, additional whole blood metabolite profiling, and total whole blood ^14C at pre dose (−60 min); 5, 10, 15, 30 and 45 min; and 1, 1.5, 2, 2.5, 3, 4, 6, 8, 12, 16, 24, 36, 48, 72, 96, 120, 144, 168, 192, 216 and 240 h after dosing. Blood samples were taken via an indwelling IV catheter or by direct venipuncture into designated blood collection tubes, with K2 EDTA used as an anticoagulant. Study samples were diluted immediately after blood collection, at a ratio of 1:4 using prechilled 30% acetonitrile, then separated into storage tubes and immediately frozen at −80°C for shipment to the analytical laboratory. At the laboratory, extraction of ^14C-zalunfiban from whole blood was achieved by repeated microcentrifugation, vortex mixing, and harvesting to collect analytes (see Metabolite profiling and excretion for more details).
# Zalunfiban and M1 whole blood concentrations were measured using a validated LC-MS/MS method in compliance with the ICH-M10 guideline. The method utilised a Sciex 5500 mass spectrometer, Shimadzu LC30AD HPLC system, and a Shimadzu AD multiplate autosampler. Mobile phase A (MPA) was 10 mM ammonium acetate with 0.1% ammonium hydroxide and mobile phase B (MPB) was 10 mM ammonium acetate with acetonitrile:ammonium hydroxide. An Acquity UPLC BEH Hilic 1.7 micrometer column (Waters Corporation) was used at a temperature of 50 °C. The column flow rate was 0.4 mL/min and injection volumes were 2.0 microliters. The gradient for analytical pumps was set at 30% MAP and 70% MPB.
# For whole blood LC-MS/MS the calibration ranges were 5.00–500.00 ng/mL for zalunfiban and 25.00–2500.00 ng/mL for M1. Zalunfiban and M1 sample concentrations below 5 ng/mL and 25 ng/mL, respectively, were reported as below the lower limit of quantification (<LLOQ).
# Zalunfiban and whole blood radioactivity concentrations were used to calculate PK parameters using standard non-compartmental analysis (NCA) methods using Phoenix WinNonlin software (Phoenix, Princeton, NJ). […]
# [1] = geometric mean, n=8, single SC 9.5 mg
# [2] = sc, 9.5 mg, geometric mean, n=8, single SC 9.5 mg
# [3] = sc, 9.5 mg, mean, n=8, single SC 9.5 mg
# [4] = sc, 9.5 mg, median, n=8, single SC 9.5 mg
smiles,measurement,setting,value
"NCC(=O)Nc1cncc(-c2nn3c(=O)cc(N4CCNCC4)nc3s2)c1 [Zalunfiban, 2-amino-N-{5-[5-oxo-7-(piperazin-1-yl)-5H-[1,3,4]thia-diazolo[3,2-a]pyrimidin-2-yl]pyridin-3-yl}acetamide]",Time of last measurable whole blood zalunfiban concentration,all participants,≤ 4 h
same,"CL/F, whole blood zalunfiban",[1],80.7 L/h
same,"tlast, whole blood zalunfiban",[1],3.4 h
same,Cmax,[2],94.6 ng/mL
same,Tmax,[2],15 min
same,AUC(0-inf),[2],116 ng·h/mL
same,AUC(0-t),[2],107 ng·h/mL
same,k el,[2],0.00021 s⁻¹
same,Vd/F,[2],107 L
same,half-life,[2],55.2 min
same,half-life,"sc, 9.5 mg, mean terminal half-life, n=8, single SC 9.5 mg",~60 min
same,Tmax,[3],15.6 min
same,Cmax,"sc, 9.5 mg, mean, n=8, single SC 9.5 mg ^14C-zalunfiban",95.2 ng/mL
same,AUC(0-inf),[3],118 ng·h/mL
same,AUC(0-t),[3],109 ng·h/mL
same,k el,[3],0.000218 s⁻¹
same,Vd/F,[3],114 L
same,Cmax,[4],96.9 ng/mL
same,Tmax,[4],~15 min
same,AUC(0-inf),[4],123 ng·h/mL
same,AUC(0-t),[4],114 ng·h/mL
same,k el,[4],0.000229 s⁻¹
same,half-life,[4],50.4 min
same,Tmax,"subcutaneous, 9.5 mg, median",15 min
same,Vd/F,"median, n=8, single SC 9.5 mg",96.6 L
same,"CL/F, whole blood zalunfiban","mean, n=8, single SC 9.5 mg",81.8 L/h
same,"tlast, whole blood zalunfiban","mean, n=8, single SC 9.5 mg",3.4 h
same,"CL/F, whole blood zalunfiban","median, n=8, single SC 9.5 mg",76.3 L/h
same,"tlast, whole blood zalunfiban","median, n=8, single SC 9.5 mg",3.5 h
